In assay [1] the test system is Nav1.7 loss of function pain-free. Nature of the assay: Tactile sensitivity under naloxone. Type of assay: in vivo, human. The note with it: baseline, saline and naloxone conditions.
A further assay relates to normal mice. Briefly: Hargreaves test after naloxone in normal mice. It counts as in vivo. The note with it: 2 mg/kg naloxone intraperitoneal. The method, then: (§1) Thermal nociceptive thresholds were measured using the paw-withdrawal latency according to the method described by Hargreaves et al. (1988), with minor modifications (Minett et al. 2011). Briefly, mice were left to acclimatise within an IITC Hargreaves stand for at least 1 hour. Three withdrawal responses were measured per animal. The mice were then left to resettle for at least 30 minutes before the drug treatment.
(§2) Mice received intraperitoneal injections of either 2 mg/kg naloxone or the equivalent volume of vehicle.

In the next assay the test system is healthy human controls. Nature of the assay: Radiant heat stimuli under naloxone in healthy controls. Type of assay: in vivo. The note with it: healthy patients. The method, then: (§3) We evaluated the probability of detecting 9-ms radiant heat pulses in a Nav1.7 null mutant human patient and in three age-matched, healthy human controls. Radiant heat was used to selectively stimulate intra-epidermal free-nerve endings, without touch. The results are depicted in FIG. 11A.
(§4) Tonic radiant heat was administered over 25 seconds, while the participants rated online the intensity of the heat on a visual analogue scale. The results are depicted in FIG. 11B.

Assay [2] relates to Nav1.7 loss of function pain-free. Briefly: Human radiant heat detection thresholds (warmth, pinprick) under naloxone. Type of assay: in vivo. To be noted: naloxone 6 mg bolus and 0.1 mg/minute infusion. The method, then: (§5) A Nav1.7 loss of function pain-free […] ([…]) was tested under baseline, saline, and naloxone (6 mg) bolus and 0.1 mg/minute infusion treatment. The forearm was stimulated with radiant heat (CO2 lasers).
Warmth threshold reflects activation of unmyelinated C-fibres, while pinprick threshold is mediated by small-myelinated A-delta fibres (LaMotte et al 1978). Detection thresholds were assessed by slowly increasing the temperature of the stimulus (rate 1 deg/sec), after a neutral baseline of variable length (5-10 seconds). The participant was asked to press a button, to stop the stimulus as soon it was detected as warm or pinprick. At baseline, ML perceived only 1 of the 6 stimulus ramps. All the stimuli were detected in the subsequent saline and naloxone sessions.

Assay [3] relates to Nav1.7 null mutant human. Nature of the assay: Human processing of phasic radiant heat (laser pulses) under naloxone. Type of assay: in vivo. The method, then: as §5
Laser pulses of the same energy (fluency 0.6 j/mm^2) were given to the forearm. The energy used typically evokes a sensation of sharp pinprick pain in healthy volunteers. […] However, naloxone enhanced the detection rate of laser pulses to 80%. ML felt 37.5% of the detected stimuli as pinprick, while the other sensations were described as a slow heat, or warmth. Ratings were low (mean 6.1, range 0.5-15) in a perceived intensity scale ranging from 0-100.
as §3

Assay [4] has as its system Nav1.7 null mutant human. Nature of the assay: Human processing of tonic radiant heat under naloxone (ratings, EEG). It counts as in vivo. The protocol: as §5
We delivered tonic stimuli, at the constant temperature of 42, 45, and 48° C. for 20 sec. ML rated online fluctuations in perceived intensity on a visual analog scale. Identical stimuli were rated higher after administration of naloxone in comparison to both the baseline and saline conditions.
Furthermore, we measured the electroencephalogram (EEG) responses induced by tonic radiant heat stimulation: in other words, we looked at the effect of the nociceptive stimulation on brain rhythms.
as §4

Another assay has as its system Nav1.7 null mutant mice. Nature of the assay: Hargreaves test after naloxone in Nav1.7 null mutant mice. To be noted: 2 mg/kg naloxone intraperitoneal; Nav1.7 Advill tissue-specific null mutant mice. It counts as in vivo. The method, then: The analgesia found in Nav1.7 null mutant mice was measured with the Hargreaves apparatus, which is a measure of acute thermal pain (Minett et al. 2011, Minett et al. 2012).
as §1, §2

The target in assay [5] is T1, Nav1.7 (Homo sapiens, UniProt Q15858). The note with it: Yang et al. 2013; read-out: IC50 for inhibition of Nav1.7; cited from earlier work.
T1 sequence (Q15858 whole entry): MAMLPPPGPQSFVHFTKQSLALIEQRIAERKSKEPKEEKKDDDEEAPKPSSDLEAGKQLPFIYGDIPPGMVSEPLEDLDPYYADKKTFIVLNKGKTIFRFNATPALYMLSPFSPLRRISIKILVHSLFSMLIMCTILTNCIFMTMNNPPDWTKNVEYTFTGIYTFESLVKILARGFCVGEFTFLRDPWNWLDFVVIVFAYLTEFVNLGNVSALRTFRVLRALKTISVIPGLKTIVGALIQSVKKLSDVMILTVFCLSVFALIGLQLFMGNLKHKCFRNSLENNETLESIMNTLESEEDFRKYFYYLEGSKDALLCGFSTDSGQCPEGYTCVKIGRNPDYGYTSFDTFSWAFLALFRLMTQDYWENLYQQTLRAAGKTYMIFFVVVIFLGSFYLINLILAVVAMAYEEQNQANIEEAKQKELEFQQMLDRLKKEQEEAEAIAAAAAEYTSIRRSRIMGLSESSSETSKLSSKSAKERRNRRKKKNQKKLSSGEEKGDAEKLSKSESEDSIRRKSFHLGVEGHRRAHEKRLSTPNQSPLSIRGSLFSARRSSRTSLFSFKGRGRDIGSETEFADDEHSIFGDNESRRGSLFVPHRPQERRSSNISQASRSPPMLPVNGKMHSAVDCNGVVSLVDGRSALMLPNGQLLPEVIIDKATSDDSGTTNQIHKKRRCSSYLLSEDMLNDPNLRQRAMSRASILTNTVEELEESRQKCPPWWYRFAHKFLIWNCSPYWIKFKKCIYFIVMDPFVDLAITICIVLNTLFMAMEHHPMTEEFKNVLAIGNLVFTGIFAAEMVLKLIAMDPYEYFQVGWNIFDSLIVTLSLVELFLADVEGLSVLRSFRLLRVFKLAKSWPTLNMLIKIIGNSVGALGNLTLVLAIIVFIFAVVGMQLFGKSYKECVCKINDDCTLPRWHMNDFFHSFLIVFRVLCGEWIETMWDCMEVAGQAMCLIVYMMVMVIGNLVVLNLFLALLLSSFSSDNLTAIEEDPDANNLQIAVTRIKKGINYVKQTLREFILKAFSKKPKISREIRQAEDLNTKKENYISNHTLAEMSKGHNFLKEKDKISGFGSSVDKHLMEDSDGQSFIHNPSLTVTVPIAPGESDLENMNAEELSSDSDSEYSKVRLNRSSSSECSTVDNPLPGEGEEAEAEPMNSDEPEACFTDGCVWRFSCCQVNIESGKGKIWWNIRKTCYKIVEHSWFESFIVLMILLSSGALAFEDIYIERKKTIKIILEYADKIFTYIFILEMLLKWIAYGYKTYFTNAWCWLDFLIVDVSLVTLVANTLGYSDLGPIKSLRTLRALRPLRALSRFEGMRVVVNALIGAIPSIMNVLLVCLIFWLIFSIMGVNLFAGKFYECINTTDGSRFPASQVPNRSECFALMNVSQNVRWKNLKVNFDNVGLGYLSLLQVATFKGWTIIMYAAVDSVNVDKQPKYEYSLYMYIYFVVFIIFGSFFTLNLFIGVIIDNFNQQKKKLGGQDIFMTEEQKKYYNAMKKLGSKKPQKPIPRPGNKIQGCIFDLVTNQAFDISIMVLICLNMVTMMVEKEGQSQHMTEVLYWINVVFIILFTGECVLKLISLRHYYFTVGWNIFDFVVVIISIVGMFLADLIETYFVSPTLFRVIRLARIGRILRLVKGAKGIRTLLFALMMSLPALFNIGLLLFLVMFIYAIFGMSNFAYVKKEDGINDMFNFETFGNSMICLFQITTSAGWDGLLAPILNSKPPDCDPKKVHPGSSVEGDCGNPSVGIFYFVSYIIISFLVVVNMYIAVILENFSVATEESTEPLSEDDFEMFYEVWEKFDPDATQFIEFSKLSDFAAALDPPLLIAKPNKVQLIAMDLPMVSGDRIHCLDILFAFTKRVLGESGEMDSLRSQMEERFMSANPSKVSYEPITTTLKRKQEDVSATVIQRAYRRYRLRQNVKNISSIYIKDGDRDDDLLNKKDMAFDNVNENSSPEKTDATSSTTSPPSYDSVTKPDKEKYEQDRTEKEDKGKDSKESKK
Assay [6] concerns the target T1, Nav1.7. Briefly: Whole cell voltage clamp of Nav1.7 activity in transfected HEK293 cell line. Type of assay: cell-based. Also noted: expressed in transfected cells; host or cells: HEK293. To be noted: 0.25 μM, HEK293 cell line transfected with human Nav1.7. The method, then:
Specifically, HEK293 (ATCC) cells are transfected with Nav1.7 or other sodium channel cDNA constructs in a vector co-expressing a fluorescent marker protein using lipofectamine 2000 or other transfection method and plated onto poly-d-lysine coated coverslips. All recordings are done 24-72 hours after transfection
Whole-cell voltage clamp recordings are performed using an Axopatch 200 B amplifier at room temperature using standard techniques. Extracellular solution comprised (mM) NaCl 145, KCl 4, CaCl2 1.8, MgCl2 1, HEPES 10, (pH 7.35 with NaOH); intracellular (mM) CsCl 150, EGTA 10, HEPES 10, (pH 7.35 with CsOH). […] Tau of inactivation was measured by fitting a standard exponential function to the decaying current and persistent current was determined by measuring the current 20 ms after the start of the voltage step and expressing it as a percentage of the transient current in the same step. To assess voltage dependence of activation current-voltage families were obtained and peak sodium currents measured at each voltage. Channel conductance was calculated using the formula GNa=I/(V−Vrev) where GNa is sodium conductance, I is peak current, V is the voltage step and Vrev is the measured reversal potential which was determined for each cell by fitting a straight line through the linear portion of the current-voltage relationship. […]

In assay [7] the target is T1, Nav1.7. The note with it: Escoubas et al. 2006, Bosmans et al. 2005; cited from earlier work.
The subject of assay [8] is murine acute thermal pain model. Briefly: Hargreaves test, murine acute thermal pain model, intraplantar drug treatment. To be noted: 1 μg of each drug, 20 μl intraplantar injection, compared with control mice.
Experimental: (§6) Mice received 20 μl intraplantar injections of either; • 1 μg Phlotoxin-1, • 1 μg Buprenorphine, • combined 1 μg Phlotoxin-1 and 1 μg Buprenorphine • or vehicle.
Assay [9] relates to inflammatory hyperalgesia in a murine thermal pain model. Nature of the assay: Complete Freund's Adjuvant thermal hyperalgesia, Hargreaves test (Example 2). It counts as in vivo, mice. The note with it: intraplantar 1 microgram each; three days post CFA.
Experimental: Baseline thermal thresholds were recorded for each animal before 20 μl Complete Freund's Adjuvant (Sigma) was injected subcutaneously into the plantar aspect of a hind paw using a Hamilton syringe and 30 G needle. Three days post Complete Freund's Adjuvant injections thermal threshold were measured before to drug treatment.
as §6
Setting [10] is: scale ranging from 0-100, naloxone.

As to `C=CCN1CC[C@]23c4c5ccc(O)c4O[C@H]2C(=O)CC[C@@]3(O)[C@H]1C5` [naloxone], in assay [1], the tactile sensitivity entry was “remained unchanged”. For the same compound, the “effect on pain thresholds, Hargreaves test” value in the assay with normal mice is recorded as “does not alter pain thresholds”. Further, the “sensitisation to noxious stimuli (phasic and tonic radiant heat)” value in the assay with healthy human controls is reported as “no effect”. Besides, the “trials in which pinprick stimuli were reported "surprisingly uncomfortable"” value in [2] was determined as 66%. Besides, in assay [2] (forearm radiant heat), the “reduction of pinprick detection thresholds relative to saline” value was found to be 1.7 °C and the “reduction of warmth detection thresholds relative to saline” value came out at 7 °C. Further, in the assay on Nav1.7 null mutant human [3] (bolus of 6 mg naloxone followed by infusion at 0.1 mg/minute, Nav1.7 null mutant), the “probability of detecting 9-ms radiant heat pulses” value came out at 80%. In the assay with Nav1.7 null mutant human [3] (fluency 0.6 j/mm2, forearm, naloxone, none perceived at baseline and saline), the “detection rate of laser pulses” value was found to be 80%. Also, the “detected stimuli felt as pinprick” value in the assay with Nav1.7 null mutant human [3] (naloxone) is given as 37.5%. In the assay with Nav1.7 null mutant human [3] (setting [10]), the “perceived intensity rating of laser pulses, mean” value stood at 6.1 and the “perceived intensity rating of laser pulses, range” value is on record as 0.5-15. Further, in the assay on Nav1.7 null mutant human [4] (42, 45 and 48° C. for 20 sec, naloxone), the “perceived intensity rating of tonic stimuli (visual analog scale) versus baseline and saline” value is given as “rated higher”. For the same compound, in the assay with Nav1.7 null mutant human [4] (naloxone), the “EEG alpha and beta power during tonic radiant heat” value is “reduced”; the “EEG low and high gamma induced oscillations relative to baseline and saline” value is on record as “enhancement”. Further, in the assay on Nav1.7 null mutant human [4] (tonic radiant heat over 25 seconds, Nav1.7 null human), the “intensity ratings of tonic radiant heat on visual analogue scale (Example 14)” value was “strongly increased”. Besides, the “effect on the analgesia of Nav1.7 null mutant mice, Hargreaves test” value in the assay with Nav1.7 null mutant mice was “partially reverses”.
A word on the IC50: it is the concentration at which inhibition is half-maximal. μ-SLPTX-Ssm6a: on Nav1.7 [5], the IC50 was approximately 25 nM.
Take Phlotoxin-1: the “inhibition of functional Nav1.7 voltage-gated channel activity” value against Nav1.7 [6] was “completely inhibits”. Also, the “selective affinity for Nav1.7 compared to other expressed sodium channels” value at Nav1.7 [7] is listed as “sub-micromolar”. Besides, the “analgesia in the Hargreaves test (paw-withdrawal latency)” value in assay [8] was “no analgesia”. In assay [9], the “effect on inflammatory (CFA) thermal hyperalgesia, Hargreaves test” value is recorded as “much lesser effects”.

The values are drawn from patent US20160339099A1, “SYNERGISTIC COMBINATION OF ANALGESIC DRUGS” (priority 2013, published 2016).
